Measured values from patent US7238525B2, “Strategy for leukemia therapy” (The Regents of the University of California, priority 2000, dated 2007).

Experiments:
K562 cells [1] = assay: Cell survival assay, K562 cells; assay type: cell-based; conditions: 72 hours treatment, then drug removal
Description: […]. […] […].
After 48 h (TonB, TonB210) or 72 h (K562), live cells were counted with the Trypan blue exclusion assay. Cells were then washed extensively with PBS and placed in growth media. Trypan blue cell counts were repeated every 48 h and followed by feeding with fresh media. Cell counts were stopped when the number of viable cells was higher than the number of cells originally plated.

Bcr-Abl-KD = assay: Nuclear localization by immunofluorescence in transfected Abl−/− fibroblasts (Bcr-Abl-KD); assay type: cell-based; conditions: LMB alone
TonB cells = conditions: 48 hours treatment, with IL-3
[2] = human, in vivo; cited from earlier work
[3] = human, in vivo; cited from earlier work; remark: listed apart in the source
untransfected cells = assay: TUNEL assay, untransfected cells; assay type: cell-based; conditions: STI571 alone, BCR-Abl-NES experiment
From the text: It is known that activation of the nuclear Abl tyrosine kinase by DNA damage can contribute to the induction of apoptosis (Gong et al., 1999; Wang, 2000). Similarly, when translocated into the nucleus, Bcr-Abl kinase can activate apoptosis. […]. […] However, removal of the inhibitor while maintaining the Bcr-Abl in the nucleus strongly stimulated apoptosis. […]. With this protocol, between 70–80% of the Bcr-Abl expressing cells were positive for TUNEL staining, whereas the apoptosis rate remained at the 10% level with untransfected cells (Table 2). By expressing Bcr-Abl-KD and treating cells with LMB alone, it was confirmed that an active nuclear Bcr-Abl kinase was required to induce apoptosis.
Cell Death Assays. […] […].

human leukemic cells = conditions: in vivo STI571 treatment; cited from earlier work
K562 cells [4] = assay: Tyrosine-phosphorylated proteins in total cell lysates, K562; conditions: at the end of drug treatments
Description: The tyrosine-phosphorylated proteins in total cell lysates were examined at the end of drug treatments and then before their precipitous death.
Transfection and Immunoblotting. […] Immunoblots were performed using 1 μg/ml 4G10 monoclonal antibody against phosphotyrosine (Upstate Biotechnology, Waltham, Mass.), or 1 μg/ml monoclonal antibody against Abl (8E9) (Pharmingen, San Diego, Calif.).

Row | Structure (SMILES) | viable cell numbers (K562 cells [1]) | nuclear fraction of Bcr-Abl-KD (Bcr-Abl-KD) | viable cell numbers (TonB cells) | toxicity observed in a phase I clinical trial [2] | maximum tolerated dose [3] | TUNEL-positive untransfected cells (untransfected cells) [%] | tumors eradicated (human leukemic cells) | overall levels of tyrosine-phosphorylated proteins (K562 cells [4])
1 | CCC(=C/[C@H](C)C/C=C/C(C)=C/[C@@H](C)C(=O)[C@@H](C)[C@H](O)[C@@H](C)C/C(C)=C/C(=O)O)/C=C/[C@@H]1OC(=O)C=C[C@@H]1C [LMB, leptomycin B] | initial decline in cell number | 25–35% | caused a reduction in cell numbers | neuronal toxicity |  |  |  | 
2 | Cc1ccc(NC(=O)c2ccc(CN3CCN(C)CC3)cc2)cc1Nc1nccc(-c2cccnc2)n1 [STI571, 4-[(4-methyl-piperazinyl)methyl]-N-[4-methyl-3-[[4-(3-pyrodnyl)-2-pyrimidinyl]amin]phenyl]benzamide methanesul-fonate] | initial death |  |  |  | No maximum tolerated dose has been identified | 3 | 70–100% | decreased
